“And” between values parts separate entries of the source, which are not always exact repeats. Equal values may be shown once. Marks after values point to notes of the source that are not given here.
Columns and labels:
male Wistar rats [1] = assay: Pair-test of sexual behavior, copulatory activity reduced by Synestrol; assay type: in vivo, rat
Procedure: Reduction of copulatory activity caused by androgen deficiency was simulated by administration of Synestrol to male rats.
The model is based on the antagonism of androgenic and estrogenic hormones. The administration of Synestrol to male rats leads to the suppression of the sexual activity in animals.
Experiments were performed on 36 male Wistar rats (3 months of age). For 30 days after the beginning of the experiment, all male rats (except for the intact group (background)) were intramuscularly injected with Synestrol at a dose of 50 U/kg/day. Further, from Day 31 to Day 45 of the experiment, animals of the experimental groups, in addition to Synestrol, were intraperitoneally administered Treamid at a dose of 1.5 mg/kg and reference preparation Tribestan at a dose of 70 mg/kg. The sexual activity was estimated by the pair-test of sexual behavior. For this purpose, female rats in the estrus stage caused by a preliminary 4-fold injection of Synestrol were involved in the experiment. The effectiveness of Treamid was estimated by the following indices: latency until the first mating attempt (LFM), the number of mating attempts (mounts), and the number of ejaculations. The obtained data were compared with those of the same animals before the experiment (the first test) and with the data in the control group (the second test).

male Wistar rats [2] = assay: Metabolic syndrome model in rats (cafeteria diet); assay type: in vivo, rat
Description: Metabolic syndrome was simulated in male Wistar rats (260-280 g) by keeping animals on a high-fat diet (“cafeteria diet”) for 12 weeks. The “cafeteria diet” was balanced according to Current Protocols in Pharmacology [Current Protocols in Pharmacology (2005) Animal Models of Disease//Contributed by Petter Hedlund, Kenshi Matsumoto, and Karl-Erik Andersson]. The diet contained 25-35% of fats and 25-30% of digestible carbohydrates in addition to the standard diet of rodents. Treamid was administered at a dose of 0.5 mg/kg intragastrically once daily, every day from Week 7 to Week 11 of the diet. Reference drug Metformin was administered at a dose of 200 mg/kg intragastrically according to the same regimen.
The development of pathology and a therapeutic effect of Treamid were estimated by the following parameters: blood biochemical parameters (glucose, cholesterol, triglycerides (TG), HDL, LDL, atherogenicity index), glucose tolerance test, visceral fat weight, total number and percentage of motile sperm forms.
Glucose was determined with an OneNouch Select glucometer (Switzerland).
The levels of triglycerides, TCh and HDL were determined by using a diagnostic kit (Olvex Diagnosticum, Russia).
The level of LDL was determined by the formula 2. LDL=TCh−(HDL+TG/2.2) (1),
The atherogenicity index (AI) was calculated by the formula 3. AI=(TCh−HDL)/HDL (2),
The atherogenicity index was calculated for each animal individually, and then the arithmetic mean value of the group was calculated.
For the analysis of sperm, the animals were anesthetized with intraperitoneal injection of a mixture of Zolletil and Xyla (0.2 ml of Zoletil+0.8 ml Xyla) in a volume of 70 μl/100 g of weight. Epididymis was isolated. The epididymis head was cut off from the tail, weighed, 5 incisions were made (to improve the sperm yield), and placed in a tube containing 10 ml of phosphate buffered saline heated to 37° C. The tube was held at 37° C. for 10 minutes. Then, the tube was shaken on a shaker, 20 μl of the liquid was taken, applied to a glass slide heated to 37° C., and the number of motile sperm cells was assessed under a microscope. The calculation was performed up to 100 sperm cells.
The total number of sperm cells in a test tube with epididymis was calculated as follows: 20 μl of the liquid was taken after shaking and added to a tube containing 400 μl of physiological saline. After shaking the tubes, their contents (20 μl) were taken out and introduced into Goryaev chamber. The number of sperm cells was counted in 100 large squares. The number of sperm cells in the head of epididymis was calculated by the formula: Number of sperm cells=number of sperm cells in 100 large squares of Goryaev chamber*0.525(factor from the calculation of the dilution and the volume of Goryaev chamber)/weight of the epididymis head.

female C57Bl/6 mice = assay: Elastase-induced pulmonary emphysema model; assay type: in vivo, mouse
Procedure: Pulmonary emphysema was induced in female C57Bl/6 mice by a single intratracheal administration of elastase (Sigma, USA) at a dose of 0.6 U/mouse in 30 μl of 0.9% NaCl [Lüthje L., Raupach T., Michels H. et al.//Respiratory Research 2009, 10: 7]. The day of operation was taken as Day 0 of the experiment. Treamid was administered at a dose of 10 mg/kg intragastrically once daily, every day from Day 7 to Day 60 of the study. On Days 7, 14, 30 and 60, the animals were euthanized in a CO2 chamber, and their lungs were isolated.
The dynamics and severity of the developed emphysema in the lung tissue were assessed on histological preparations. For this, the lungs were fixed in a 10% neutral formalin solution and then poured into paraffin by the standard method. The preparations of the lung apex, middle lung field, and lower lung field of a thickness of 5 μm were prepared from the deparaffined sections, and stained with hematoxylin and eosin by the standard procedure. Further, photographs of the lung apex, middle lung field, and lower lung field were made, and the localization and area of emphysema were studied by using graphics processing software. The area of emphysematously enlarged lung tissue (% of normal tissue) was measured as an estimated score of the development of emphysema, and blood vessels and bronchi were excluded from the calculations [ArrateMunoz-Barrutia, Mario Ceresa, Xabier Artaechevarria, Luis M. Montuenga, and Carlos Ortiz-de-Solorzano. Quantification of Lung Damage in an Elastase-Induced Mouse Model of Emphysema//International Journal of Biomedical Imaging. Volume 2012, Article ID 734734, 11 pages; Susumu Sato, Erzsebet Bartoldk-Suki, Harikrishnan Parameswaran, Hiroshi Hamakawal and Bela Suki. Scale dependence of structure-function relationship in the emphysematous mouse lung//Front. Physiol. 6:146. doi: 10.3389/fphys. 2015.00146].

[3] = First test, Synestrol-treated rats
[4] = Second test, Treamid 1.5 mg/kg or Tribestan 70 mg/kg intraperitoneally Day 31-45
[5] = Treamid 0.5 mg/kg, Metformin 200 mg/kg intragastrically Week 7-11 of high-fat diet
[6] = high-fat diet for 12 weeks, Treamid 0.5 mg/kg, Metformin 200 mg/kg
[7] = high-fat diet, Treamid 0.5 mg/kg, Metformin 200 mg/kg
[8] = Day 7, Treamid 10 mg/kg intragastrically from Day 7

**Q.** How did the “Ejaculating animals, %” value (male Wistar rats [1]; [3]) turn out when `O=C(CCCC(=O)NCCc1ncc[nH]1)NCCc1ncc[nH]1` [Treamid] was run?
**A.** 0.00%#

**Q.** And the “LFM” value (male Wistar rats [1]; [3])?
**A.** 373.89 ± 112.89 s

**Q.** And the “The number of mounts, abs.” value (male Wistar rats [1]; [3])?
**A.** 5.89 ± 1.91 abs.

**Q.** What about the “LFM” value (male Wistar rats [1]; [4]) of the same molecule?
**A.** 381.22 ± 115.18 s

**Q.** What about the “The number of mounts, abs.” value (male Wistar rats [1]; [4]) of the same molecule?
**A.** 8.00 ± 3.12 abs.

**Q.** What about the “Glucose level in the blood of male rats, mmol/L” value (“Glucose level … mmol/L” below) (male Wistar rats [2]; 3 weeks after the drug administration, Treamid 0.5 mg/kg, Metformin 200 mg/kg) of the same molecule?
**A.** 6.5 ± 0.2*& mmol/L

**Q.** And the “Glucose level … mmol/L” value (male Wistar rats [2]; 5 weeks after the drug administration, Treamid 0.5 mg/kg, Metformin 200 mg/kg)?
**A.** 7.8 ± 0.2*& mmol/L

**Q.** What about the “Relative weight of visceral fat, Fat near the intestine” value (male Wistar rats [2]; [5]) of the same molecule?
**A.** 0.94 ± 0.07 % based on body weight

**Q.** What about the “Relative weight of visceral fat, Fat near the kidneys” value (male Wistar rats [2]; [5]) of the same molecule?
**A.** 0.48 ± 0.05& % based on body weight

**Q.** What about the “Relative weight of visceral fat, Fat near the testes” value (male Wistar rats [2]; [5]) of the same molecule?
**A.** 1.03 ± 0.14 % based on body weight

**Q.** And the “Relative weight of visceral fat, Total fat” value (male Wistar rats [2]; [5])?
**A.** 2.46 % based on body weight

**Q.** What about the “reduction of visceral fat weight gain in comparison with the control group” value (male Wistar rats [2]; Treamid 0.5 mg/kg, Metformin) of the same molecule?
**A.** 1.3 times

**Q.** What about the “Glucose level in the blood of male rats” value (male Wistar rats [2]; before administration of drugs (Week 6 of diet)) of the same molecule?
**A.** 6.4 ± 0.2 mmol/L

**Q.** What about the “HDL, mM/l” value (male Wistar rats [2]; [6]) of the same molecule?
**A.** 1.9±0.2 mM/l and 1.9 ± 0.2& mM/l

**Q.** What about the “LDL, mM/l” value (male Wistar rats [2]; [6]) of the same molecule?
**A.** 1.2 ± 0.2 mM/l

**Q.** What about the “Total cholesterol, mM/l” value (male Wistar rats [2]; [6]) of the same molecule?
**A.** 3.5 ± 0.1 mM/l

**Q.** What about the “Triglycerides, mM/l” value (male Wistar rats [2]; [6]) of the same molecule?
**A.** 0.9 ± 0.1 mM/l

**Q.** What about the “Percentage of motile sperm forms” value (male Wistar rats [2]; [7]) of the same molecule?
**A.** 34.43 ± 3.15& %

**Q.** And the “Total number of sperm cells” value (male Wistar rats [2]; [7])?
**A.** 260.0 ± 38.7&

**Q.** What about the “Glucose level … mmol/L” value (male Wistar rats [2]; one week after the drug withdrawal, Treamid 0.5 mg/kg, Metformin 200 mg/kg) of the same molecule?
**A.** 8.3 ± 0.7& mmol/L

**Q.** And the “increase of the percentage of motile sperm forms” value (male Wistar rats [2]; vs. high-fat diet control)?
**A.** 1.5 times

**Q.** What about the “increase of the total number of sperm cells” value (male Wistar rats [2]; vs. high-fat diet control) of the same molecule?
**A.** 1.7 times

**Q.** And the “The area of emphysematously enlarged lung tissue (% of normal), Lower lung field” value (“The area … (% of normal), Lower lung field” below) (female C57Bl/6 mice; [8])?
**A.** 41.3 ± 1.82 % of normal

**Q.** And the “The area of emphysematously enlarged lung tissue (% of normal), Lung apex” value (shortened to “The area … (% of normal), Lung apex”) (female C57Bl/6 mice; [8])?
**A.** 0.9 ± 0.12*• % of normal

**Q.** And the “The area of emphysematously enlarged lung tissue (% of normal), Middle lung field” value (from here on “The area … (% of normal), Middle lung field”) (female C57Bl/6 mice; [8])?
**A.** 5.4 ± 0.55 % of normal

**Q.** What about the “The area … (% of normal), Lower lung field” value (female C57Bl/6 mice; Day 14, Treamid 10 mg/kg) of the same molecule?
**A.** 42.6 ± 1.79*• % of normal

**Q.** What about the “The area … (% of normal), Lung apex” value (female C57Bl/6 mice; Day 14, Treamid 10 mg/kg) of the same molecule?
**A.** 0.7 ± 0.09*• % of normal

**Q.** And the “The area … (% of normal), Middle lung field” value (female C57Bl/6 mice; Day 14, Treamid 10 mg/kg)?
**A.** 29.03 ± 1.76 % of normal

**Q.** What about the “The area … (% of normal), Lower lung field” value (female C57Bl/6 mice; Day 30, Treamid 10 mg/kg) of the same molecule?
**A.** 32.8 ± 3.78*• % of normal

**Q.** And the “The area … (% of normal), Lung apex” value (female C57Bl/6 mice; Day 30, Treamid 10 mg/kg)?
**A.** 2.4 ± 1.6*• % of normal

**Q.** What about the “The area … (% of normal), Middle lung field” value (female C57Bl/6 mice; Day 30, Treamid 10 mg/kg) of the same molecule?
**A.** 18.5 ± 2.91 % of normal

**Q.** And the “The area … (% of normal), Lower lung field” value (female C57Bl/6 mice; Day 60, Treamid 10 mg/kg)?
**A.** 40.0 ± 3.57*• % of normal

**Q.** What about the “The area … (% of normal), Lung apex” value (female C57Bl/6 mice; Day 60, Treamid 10 mg/kg) of the same molecule?
**A.** 3.6 ± 0.26*• % of normal

**Q.** And the “The area … (% of normal), Middle lung field” value (female C57Bl/6 mice; Day 60, Treamid 10 mg/kg)?
**A.** 24.9 ± 3.11 % of normal

From patent US10076511B2, “Bisamide derivative of dicarboxylic acid as an agent for stimulating tissue regeneration and recovery of diminished tissue function” (TREAMID GmbH, priority 2015, dated 2018)
